# Results as given in ChEMBL document CHEMBL4804286, “3-amino-4-(4-(4 (dimethylcarbamoyl) phenyl)-1,4-diazepan-1-yl) thieno [2,3-b] pyridine-2-carboxamide for use in cancer therapy and formulations comprising the same” (2020).
# Where “and” joins values, the source holds several entries; their conditions need not be identical. Equal values may be shown once. Calls of active or inactive are those of the source. The calls are words filed in the database; no cut-off is given here.
# Key:
# [1] = target: Serine/threonine-protein kinase/endoribonuclease IRE1 (Homo sapiens) (UniProt O75460); test: Inhibition of human ERN1 assessed as percent of control at 2000 nM by KINOMEscan assay relative to control; design: scale not given: the % may be the effect or the level left
# [2] = target: Serine/threonine-protein kinase SIK3 (Homo sapiens) (UniProt Q9Y2K2); test: Inhibition of human QSK assessed as percent of control at 2000 nM by KINOMEscan assay relative to control; design: scale not given: the % may be the effect or the level left
# [3] = target: Ribosomal protein S6 kinase alpha-5 (Homo sapiens) (UniProt O75582); test: Inhibition of human C-terminal RPS6KA5 kinase domain 2 assessed as percent of control at 2000 nM by KINOMEscan assay relative to control; design: scale not given: the % may be the effect or the level left
# Ribosomal protein S6 kinase alpha-5 (Homo sapiens), sequence (O75582 whole entry, looked up, the tested form may be a part): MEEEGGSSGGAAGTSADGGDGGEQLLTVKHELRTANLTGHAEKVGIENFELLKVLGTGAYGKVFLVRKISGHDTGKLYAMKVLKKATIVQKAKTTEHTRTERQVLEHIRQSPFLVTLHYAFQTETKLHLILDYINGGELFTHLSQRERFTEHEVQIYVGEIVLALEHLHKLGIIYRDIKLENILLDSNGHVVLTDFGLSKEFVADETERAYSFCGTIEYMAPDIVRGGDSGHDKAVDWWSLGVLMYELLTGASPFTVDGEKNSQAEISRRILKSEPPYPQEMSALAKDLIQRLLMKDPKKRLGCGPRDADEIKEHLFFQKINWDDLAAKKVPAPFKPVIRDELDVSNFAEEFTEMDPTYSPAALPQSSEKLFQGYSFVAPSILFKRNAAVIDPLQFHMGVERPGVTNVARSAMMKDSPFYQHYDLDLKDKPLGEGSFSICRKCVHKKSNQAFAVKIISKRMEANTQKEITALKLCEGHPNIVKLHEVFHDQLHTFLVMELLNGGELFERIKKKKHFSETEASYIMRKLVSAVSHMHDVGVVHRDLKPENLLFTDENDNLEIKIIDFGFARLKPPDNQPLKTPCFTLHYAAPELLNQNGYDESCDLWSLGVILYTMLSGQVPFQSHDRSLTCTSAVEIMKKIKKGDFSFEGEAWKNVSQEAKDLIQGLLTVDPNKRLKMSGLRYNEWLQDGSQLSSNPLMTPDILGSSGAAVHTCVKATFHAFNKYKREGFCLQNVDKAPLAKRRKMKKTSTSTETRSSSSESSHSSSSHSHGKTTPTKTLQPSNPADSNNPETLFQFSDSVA
# [4] = target: Serine/threonine-protein kinase 17A (Homo sapiens) (UniProt Q9UEE5); test: Inhibition of human DRAK1 assessed as percent of control at 2000 nM by KINOMEscan assay relative to control; design: scale not given: the % may be the effect or the level left
# [5] = target: Serine/threonine-protein kinase Nek2 (Homo sapiens) (UniProt P51955); test: Inhibition of human NEK2 assessed as percent of control at 2000 nM by KINOMEscan assay relative to control; design: scale not given: the % may be the effect or the level left
# [6] = tested on: Proto-oncogene tyrosine-protein kinase receptor Ret (Homo sapiens), P07949 [V804M]; test: Inhibition of human RET V804M mutant assessed as percent of control at 2000 nM by KINOMEscan assay relative to control; design: scale not given: the % may be the effect or the level left
# [7] = target: Serine/threonine-protein kinase PAK 1 (Homo sapiens) (UniProt Q13153); test: Inhibition of human PAK1 assessed as percent of control at 2000 nM by KINOMEscan assay relative to control; design: scale not given: the % may be the effect or the level left
# [8] = tested on: Receptor-type tyrosine-protein kinase FLT3 (Homo sapiens), P36888 [D835Y]; test: Inhibition of human FLT3 D835Y mutant assessed as percent of control at 2000 nM by KINOMEscan assay relative to control; design: scale not given: the % may be the effect or the level left
# [9] = target: Serine/threonine-protein kinase 26 (Homo sapiens) (UniProt Q9P289); test: Inhibition of human MST4 assessed as percent of control at 2000 nM by KINOMEscan assay relative to control; design: scale not given: the % may be the effect or the level left
# [10] = tested on: Tyrosine-protein kinase ABL1 (Homo sapiens), P00519 [Q252H]; test: Inhibition of phosphorylated human ABL1 Q252H mutant assessed as percent of control at 2000 nM by KINOMEscan assay relative to control; design: scale not given: the % may be the effect or the level left
# [11] = target: Activin receptor type-1 (Homo sapiens) (UniProt Q04771); test: Inhibition of human ACVR1 assessed as percent of control at 2000 nM by KINOMEscan assay relative to control; design: scale not given: the % may be the effect or the level left
# [12] = target: Macrophage colony-stimulating factor 1 receptor (Homo sapiens) (UniProt P07333); test: Inhibition of human CSF1R assessed as percent of control at 2000 nM by KINOMEscan assay relative to control; design: scale not given: the % may be the effect or the level left
# [13] = target: Beta-adrenergic receptor kinase 1 (Homo sapiens) (UniProt P25098); test: Inhibition of human GRK2 assessed as percent of control at 2000 nM by KINOMEscan assay relative to control; design: scale not given: the % may be the effect or the level left
# [14] = target: Ribosomal protein S6 kinase alpha-1 (Homo sapiens) (UniProt Q15418); test: Inhibition of human C-terminal RSK1 kinase domain 2 assessed as percent of control at 2000 nM by KINOMEscan assay relative to control; design: scale not given: the % may be the effect or the level left
# [15] = target: Tyrosine-protein kinase Srms (Homo sapiens) (UniProt Q9H3Y6); test: Inhibition of human SRMS assessed as percent of control at 2000 nM by KINOMEscan assay relative to control; design: scale not given: the % may be the effect or the level left
# [16] = target: Calcium/calmodulin-dependent protein kinase type IV (Homo sapiens) (UniProt Q16566); test: Inhibition of human CAMK4 assessed as percent of control at 2000 nM by KINOMEscan assay relative to control; design: scale not given: the % may be the effect or the level left
# [17] = target: TGF-beta receptor type-2 (Homo sapiens) (UniProt P37173); test: Inhibition of human TGFBR2 assessed as percent of control at 2000 nM by KINOMEscan assay relative to control; design: scale not given: the % may be the effect or the level left
# [18] = target: Calcium/calmodulin-dependent protein kinase type 1 (Homo sapiens) (UniProt Q14012); test: Inhibition of human CAMK1 assessed as percent of control at 2000 nM by KINOMEscan assay relative to control; design: scale not given: the % may be the effect or the level left
# [19] = target: NUAK family SNF1-like kinase 1 (Homo sapiens) (UniProt O60285); test: Inhibition of human ARK5 assessed as percent of control at 2000 nM by KINOMEscan assay relative to control; design: scale not given: the % may be the effect or the level left
# NUAK family SNF1-like kinase 1 (Homo sapiens), sequence (O60285 whole entry, canonical isoform): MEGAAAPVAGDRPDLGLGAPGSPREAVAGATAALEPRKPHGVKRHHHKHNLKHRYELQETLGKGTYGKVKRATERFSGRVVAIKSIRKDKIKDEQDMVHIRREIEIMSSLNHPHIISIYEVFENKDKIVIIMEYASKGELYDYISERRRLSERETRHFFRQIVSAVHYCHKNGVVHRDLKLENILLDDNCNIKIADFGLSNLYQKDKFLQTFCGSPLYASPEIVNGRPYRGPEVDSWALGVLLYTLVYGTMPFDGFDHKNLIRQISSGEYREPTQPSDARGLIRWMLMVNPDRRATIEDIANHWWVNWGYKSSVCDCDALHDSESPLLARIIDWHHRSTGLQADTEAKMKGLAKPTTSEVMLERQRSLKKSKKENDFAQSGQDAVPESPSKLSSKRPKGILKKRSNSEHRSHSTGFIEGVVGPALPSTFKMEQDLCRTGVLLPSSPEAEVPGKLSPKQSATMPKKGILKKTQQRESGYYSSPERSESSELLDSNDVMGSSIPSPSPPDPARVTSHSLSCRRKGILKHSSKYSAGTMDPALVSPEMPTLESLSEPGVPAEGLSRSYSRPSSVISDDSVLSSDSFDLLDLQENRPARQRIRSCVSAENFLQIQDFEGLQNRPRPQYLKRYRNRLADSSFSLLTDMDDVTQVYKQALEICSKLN
# [20] = tested on: Phosphatidylinositol 4,5-bisphosphate 3-kinase catalytic subunit alpha isoform (Homo sapiens), P42336 [C420R]; test: Inhibition of human PIK3CA C420R mutant assessed as percent of control at 2000 nM by KINOMEscan assay relative to control; design: scale not given: the % may be the effect or the level left
# Phosphatidylinositol 4,5-bisphosphate 3-kinase catalytic subunit alpha isoform (Homo sapiens), P42336 [C420R], sequence (P42336 whole entry C420R, canonical isoform): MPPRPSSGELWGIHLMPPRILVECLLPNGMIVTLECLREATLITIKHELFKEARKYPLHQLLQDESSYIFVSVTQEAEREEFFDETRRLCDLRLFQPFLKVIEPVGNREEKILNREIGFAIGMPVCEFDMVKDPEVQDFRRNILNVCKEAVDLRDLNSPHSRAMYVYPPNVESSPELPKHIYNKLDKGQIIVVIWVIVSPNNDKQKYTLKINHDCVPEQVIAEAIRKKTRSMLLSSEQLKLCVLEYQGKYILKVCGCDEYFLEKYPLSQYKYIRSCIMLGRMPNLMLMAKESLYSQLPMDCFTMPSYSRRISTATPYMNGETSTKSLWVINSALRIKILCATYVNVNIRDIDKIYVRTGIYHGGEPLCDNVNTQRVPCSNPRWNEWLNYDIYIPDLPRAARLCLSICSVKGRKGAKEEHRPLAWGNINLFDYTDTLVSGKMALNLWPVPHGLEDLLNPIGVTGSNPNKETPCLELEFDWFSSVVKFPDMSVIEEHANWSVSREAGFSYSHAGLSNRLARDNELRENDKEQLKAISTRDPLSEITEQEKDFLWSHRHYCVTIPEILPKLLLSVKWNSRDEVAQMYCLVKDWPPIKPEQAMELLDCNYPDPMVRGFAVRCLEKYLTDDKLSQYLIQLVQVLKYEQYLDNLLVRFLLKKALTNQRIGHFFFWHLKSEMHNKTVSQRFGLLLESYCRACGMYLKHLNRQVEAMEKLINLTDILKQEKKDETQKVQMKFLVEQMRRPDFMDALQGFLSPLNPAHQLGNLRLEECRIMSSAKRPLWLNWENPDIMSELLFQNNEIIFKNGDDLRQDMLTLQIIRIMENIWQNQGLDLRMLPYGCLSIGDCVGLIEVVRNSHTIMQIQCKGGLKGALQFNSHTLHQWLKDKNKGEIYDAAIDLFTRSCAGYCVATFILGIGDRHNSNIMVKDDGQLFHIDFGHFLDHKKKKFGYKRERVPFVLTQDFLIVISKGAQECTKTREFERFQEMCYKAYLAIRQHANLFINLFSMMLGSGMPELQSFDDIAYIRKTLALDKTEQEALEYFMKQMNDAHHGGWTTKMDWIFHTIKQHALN
# [21] = tested on: Tyrosine-protein kinase ABL1 (Homo sapiens), P00519 [Y253F]; test: Inhibition of phosphorylated human ABL1 Y253F mutant assessed as percent of control at 2000 nM by KINOMEscan assay relative to control; design: scale not given: the % may be the effect or the level left
# [22] = target: LIM domain kinase 2 (Homo sapiens) (UniProt P53671); test: Inhibition of human LIMK2 assessed as percent of control at 2000 nM by KINOMEscan assay relative to control; design: scale not given: the % may be the effect or the level left
# [23] = target: Misshapen-like kinase 1 (Homo sapiens) (UniProt Q8N4C8); test: Inhibition of human MINK assessed as percent of control at 2000 nM by KINOMEscan assay relative to control; design: scale not given: the % may be the effect or the level left
# [24] = target: SRSF protein kinase 1 (Homo sapiens) (UniProt Q96SB4); test: Inhibition of human SRPK1 assessed as percent of control at 2000 nM by KINOMEscan assay relative to control; design: scale not given: the % may be the effect or the level left
# [25] = target: Fibroblast growth factor receptor 4 (Homo sapiens) (UniProt P22455); test: Inhibition of human FGFR4 assessed as percent of control at 2000 nM by KINOMEscan assay relative to control; design: scale not given: the % may be the effect or the level left
# Fibroblast growth factor receptor 4 (Homo sapiens), sequence (P22455 22-802 limits assumed): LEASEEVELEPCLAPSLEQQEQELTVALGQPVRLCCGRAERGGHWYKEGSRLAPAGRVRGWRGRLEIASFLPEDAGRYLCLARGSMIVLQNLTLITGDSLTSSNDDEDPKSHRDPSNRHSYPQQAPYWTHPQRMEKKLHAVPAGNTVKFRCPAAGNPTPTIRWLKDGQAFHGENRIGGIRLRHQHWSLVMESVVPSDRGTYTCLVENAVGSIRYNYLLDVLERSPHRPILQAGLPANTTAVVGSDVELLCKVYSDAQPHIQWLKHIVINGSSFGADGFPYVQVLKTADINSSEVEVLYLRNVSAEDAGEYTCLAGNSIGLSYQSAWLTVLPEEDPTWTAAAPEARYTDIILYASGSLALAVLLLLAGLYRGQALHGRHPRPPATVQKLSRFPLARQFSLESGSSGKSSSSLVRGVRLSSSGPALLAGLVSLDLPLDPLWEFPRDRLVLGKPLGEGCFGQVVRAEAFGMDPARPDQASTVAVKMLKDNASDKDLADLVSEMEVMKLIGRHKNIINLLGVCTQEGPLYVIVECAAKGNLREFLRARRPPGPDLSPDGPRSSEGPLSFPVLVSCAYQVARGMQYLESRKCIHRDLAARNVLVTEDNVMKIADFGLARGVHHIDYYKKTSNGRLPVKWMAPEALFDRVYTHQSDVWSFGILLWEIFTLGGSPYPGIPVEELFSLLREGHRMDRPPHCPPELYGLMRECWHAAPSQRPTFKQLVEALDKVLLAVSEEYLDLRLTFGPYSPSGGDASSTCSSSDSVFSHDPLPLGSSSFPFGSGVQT
# [26] = target: Dual specificity protein kinase TTK (Homo sapiens) (UniProt P33981); test: Inhibition of human TTK assessed as percent of control at 2000 nM by KINOMEscan assay relative to control; design: scale not given: the % may be the effect or the level left
# Dual specificity protein kinase TTK (Homo sapiens), sequence (P33981 whole entry): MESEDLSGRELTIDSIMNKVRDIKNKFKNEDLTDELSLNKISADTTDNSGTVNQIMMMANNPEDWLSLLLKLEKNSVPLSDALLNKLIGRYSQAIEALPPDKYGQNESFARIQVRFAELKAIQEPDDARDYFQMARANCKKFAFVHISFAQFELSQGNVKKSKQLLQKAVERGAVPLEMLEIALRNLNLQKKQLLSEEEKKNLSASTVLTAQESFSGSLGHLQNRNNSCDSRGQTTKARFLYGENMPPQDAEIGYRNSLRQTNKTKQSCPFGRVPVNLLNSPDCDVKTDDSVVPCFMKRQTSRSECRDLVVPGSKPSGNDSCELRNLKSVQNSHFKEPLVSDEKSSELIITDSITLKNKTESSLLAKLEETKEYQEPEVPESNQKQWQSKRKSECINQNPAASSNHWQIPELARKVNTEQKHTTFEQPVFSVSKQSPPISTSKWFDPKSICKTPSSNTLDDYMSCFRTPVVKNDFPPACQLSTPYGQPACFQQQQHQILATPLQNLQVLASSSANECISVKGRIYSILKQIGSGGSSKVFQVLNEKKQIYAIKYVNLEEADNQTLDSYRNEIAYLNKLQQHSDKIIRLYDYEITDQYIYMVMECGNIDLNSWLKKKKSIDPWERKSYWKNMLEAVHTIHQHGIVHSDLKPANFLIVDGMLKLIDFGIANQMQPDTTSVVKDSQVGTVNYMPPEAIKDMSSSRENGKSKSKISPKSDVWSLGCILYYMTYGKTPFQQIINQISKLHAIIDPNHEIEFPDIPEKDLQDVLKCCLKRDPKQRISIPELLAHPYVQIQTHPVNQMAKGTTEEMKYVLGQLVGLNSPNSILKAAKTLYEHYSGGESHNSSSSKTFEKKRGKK
# [27] = tested on: Fibroblast growth factor receptor 3 (Homo sapiens), P22607 [G697C]; test: Inhibition of human FGFR3 G697C mutant assessed as percent of control at 2000 nM by KINOMEscan assay relative to control; design: scale not given: the % may be the effect or the level left
# Fibroblast growth factor receptor 3 (Homo sapiens), P22607 [G697C], sequence (P22607 whole entry G697C): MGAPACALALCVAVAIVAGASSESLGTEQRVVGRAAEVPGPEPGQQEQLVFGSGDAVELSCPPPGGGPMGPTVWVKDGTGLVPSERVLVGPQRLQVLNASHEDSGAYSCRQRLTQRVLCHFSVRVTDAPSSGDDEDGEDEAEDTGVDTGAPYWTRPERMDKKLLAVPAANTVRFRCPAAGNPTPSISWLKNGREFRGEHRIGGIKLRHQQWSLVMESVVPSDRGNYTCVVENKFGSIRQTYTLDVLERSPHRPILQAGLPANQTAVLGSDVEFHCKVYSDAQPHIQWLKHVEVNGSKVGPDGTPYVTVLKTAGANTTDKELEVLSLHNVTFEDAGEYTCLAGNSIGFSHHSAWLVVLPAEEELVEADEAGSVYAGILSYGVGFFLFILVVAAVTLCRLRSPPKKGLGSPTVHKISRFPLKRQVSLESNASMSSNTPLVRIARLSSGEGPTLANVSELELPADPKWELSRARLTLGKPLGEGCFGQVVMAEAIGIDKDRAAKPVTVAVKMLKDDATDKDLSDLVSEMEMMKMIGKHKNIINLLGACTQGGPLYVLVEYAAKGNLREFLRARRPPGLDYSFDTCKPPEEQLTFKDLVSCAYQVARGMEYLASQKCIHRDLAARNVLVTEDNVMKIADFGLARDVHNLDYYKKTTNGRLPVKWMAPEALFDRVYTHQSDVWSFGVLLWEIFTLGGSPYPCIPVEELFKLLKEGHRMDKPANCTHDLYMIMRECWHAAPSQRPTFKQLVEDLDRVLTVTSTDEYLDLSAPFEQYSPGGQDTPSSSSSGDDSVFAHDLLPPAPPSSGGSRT
# Myc-CaP = test: Antitumor activity against murine castration-resistant Myc-CaP cells xenografted in male FVB mouse assessed as suppression of tumor volume in presence of enzalutamide; assay type: functional
# [28] = target: Ribosomal protein S6 kinase alpha-5 (Homo sapiens) (UniProt O75582); test: Inhibition of human N-terminal RPS6KA5 kinase domain 1 assessed as percent of control at 2000 nM by KINOMEscan assay relative to control; design: scale not given: the % may be the effect or the level left
# [29] = tested on: Epidermal growth factor receptor (Homo sapiens), P00533 [G719C]; test: Inhibition of human EGFR G719C mutant assessed as percent of control at 2000 nM by KINOMEscan assay relative to control; design: scale not given: the % may be the effect or the level left
# [30] = target: Calcium/calmodulin-dependent protein kinase type 1D (Homo sapiens) (UniProt Q8IU85); test: Inhibition of human CAMK1D assessed as percent of control at 2000 nM by KINOMEscan assay relative to control; design: scale not given: the % may be the effect or the level left
compound,measurement,setting,value
CN(C)C(=O)c1ccc(N2CCCN(c3ccnc4sc(C(N)=O)c(N)c34)CC2)cc1,Activity,[1],100% and 80%
same,Activity,[2],89% and 97%
same,Activity,[3],95% and 100%
same,Activity,[4],100%
same,Activity,[5],95%
same,Activity,[6],100%
same,Activity,[7],96% and 92%
same,Activity,[8],100%
same,Activity,[8]; INHIBITOR,46%
same,Activity,[9],95% and 89%
same,Activity,[10],94% and 83%
same,Activity,[11],100%
same,Activity,[12],98% and 95%
same,Activity,[13],88% and 70%
same,Activity,[14],100% and 86%
same,Activity,[15],81% and 93%
same,Activity,[16],96% and 79%
same,Activity,[17],100%
same,Activity,[18],83% and 95%
same,Activity,[19],57% and 77%
same,Activity,[20],100% and 86%
same,Activity,[21],100% and 81%
same,Activity,[22],91% and 98%
same,Activity,[23],100% and 87%
same,Activity,[24],100% and 97%
same,Activity,[25],100% and 96%
same,Activity,[26],83% and 80%
same,Activity,[27],95% and 100%
same,Activity,Myc-CaP,Active
same,Activity,[28],75% and 100%
same,Activity,[29],97% and 100%
same,Activity,[30],87% and 93%
